Test results taken from patent publication US11866430B2, “Naphthyridinone compounds useful as T cell activators” (priority 2018, dated 2024).
pIC50: −log10 of the molar value. Read-outs that look alike come from different tables or passages of the source.

Experiments:
[1] = biological target: human DGKα (Homo sapiens (Human), UniProt P23743); assay: DGKα LIPGLO assay (extruded liposome substrate); type: biochemical
Procedure, shortened: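 Human full-length DGKα, His-tagged and produced in Sf9 cells, assayed at 20 nM (4× stock) on extruded liposomes of PS, 0.25 mM DAG and 2.75 mM PC, preincubated 10 min. Reaction started with 300 μM ATP (stock) and ran 1 h in MOPS pH 7.5/MgCl2/CaCl2/DTT buffer.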

[2] = biological target: human DGKζ (Homo sapiens (Human), UniProt Q13574); assay: DGKζ assay (detergent/lipid micelle substrate); type: biochemical; settings: detergent/lipid micelle substrate; read-out: DGKζ IC50
human DGKζ, sequence (Q13574 other isoform, or with tags, fused parts or gaps): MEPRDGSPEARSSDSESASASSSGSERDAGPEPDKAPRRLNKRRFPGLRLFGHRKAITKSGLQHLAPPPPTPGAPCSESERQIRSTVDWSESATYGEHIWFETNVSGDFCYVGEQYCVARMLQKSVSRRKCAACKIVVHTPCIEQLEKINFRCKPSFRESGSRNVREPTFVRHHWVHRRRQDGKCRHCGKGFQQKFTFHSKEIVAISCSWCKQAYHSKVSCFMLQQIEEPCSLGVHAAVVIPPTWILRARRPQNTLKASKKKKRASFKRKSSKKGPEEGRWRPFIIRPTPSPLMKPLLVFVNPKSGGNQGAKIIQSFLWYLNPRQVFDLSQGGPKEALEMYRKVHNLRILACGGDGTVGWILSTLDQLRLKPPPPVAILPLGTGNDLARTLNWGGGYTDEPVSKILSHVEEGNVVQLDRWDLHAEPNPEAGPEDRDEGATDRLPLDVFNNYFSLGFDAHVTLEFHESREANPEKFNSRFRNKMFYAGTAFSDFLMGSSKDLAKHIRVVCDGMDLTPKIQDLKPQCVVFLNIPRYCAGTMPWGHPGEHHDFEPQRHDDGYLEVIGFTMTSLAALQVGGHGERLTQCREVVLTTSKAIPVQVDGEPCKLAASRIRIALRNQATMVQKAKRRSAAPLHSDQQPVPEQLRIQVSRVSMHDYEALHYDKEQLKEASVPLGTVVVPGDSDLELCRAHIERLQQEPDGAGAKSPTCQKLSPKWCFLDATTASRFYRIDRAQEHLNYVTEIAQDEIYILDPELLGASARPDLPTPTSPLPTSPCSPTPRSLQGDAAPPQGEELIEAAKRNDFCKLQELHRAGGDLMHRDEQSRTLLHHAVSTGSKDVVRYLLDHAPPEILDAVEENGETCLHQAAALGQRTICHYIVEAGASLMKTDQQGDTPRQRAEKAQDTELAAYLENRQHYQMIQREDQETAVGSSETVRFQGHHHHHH
Procedure, shortened: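 Full-length human DGKζ (and DGKα), C-terminal His-tagged, Sf9-expressed, with phosphatidylserine/DAG micelles in 50 mM octyl glucoside; buffer 50 mM MOPS pH 7.5, 100 mM NaCl, 10 mM MgCl2, 1 μM CaCl2, 1 mM DTT.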

[3] = tested on: Jurkat AP1-luciferase Reporter; assay: DGK AP1-Reporter Assay; type: cell-based; settings: Homo sapiens, Jurkat
Procedure, shortened: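 Jurkat cells carrying a lentiviral AP1-luciferase reporter received 30 nl compound per well for 20 min at 37 °C and 5% CO2. They were then stimulated for 6 h with anti-CD3 solution at 0.4 μg/mL; reference wells received 4 μg/mL and unstimulated wells medium only. Readout was Steady-Glo luciferase luminescence (RLU).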

[4] = read-out: API-Luciferase Reporter IC50, Table 3

human DGKα, sequence (P23743 other isoform, or with tags, fused parts or gaps): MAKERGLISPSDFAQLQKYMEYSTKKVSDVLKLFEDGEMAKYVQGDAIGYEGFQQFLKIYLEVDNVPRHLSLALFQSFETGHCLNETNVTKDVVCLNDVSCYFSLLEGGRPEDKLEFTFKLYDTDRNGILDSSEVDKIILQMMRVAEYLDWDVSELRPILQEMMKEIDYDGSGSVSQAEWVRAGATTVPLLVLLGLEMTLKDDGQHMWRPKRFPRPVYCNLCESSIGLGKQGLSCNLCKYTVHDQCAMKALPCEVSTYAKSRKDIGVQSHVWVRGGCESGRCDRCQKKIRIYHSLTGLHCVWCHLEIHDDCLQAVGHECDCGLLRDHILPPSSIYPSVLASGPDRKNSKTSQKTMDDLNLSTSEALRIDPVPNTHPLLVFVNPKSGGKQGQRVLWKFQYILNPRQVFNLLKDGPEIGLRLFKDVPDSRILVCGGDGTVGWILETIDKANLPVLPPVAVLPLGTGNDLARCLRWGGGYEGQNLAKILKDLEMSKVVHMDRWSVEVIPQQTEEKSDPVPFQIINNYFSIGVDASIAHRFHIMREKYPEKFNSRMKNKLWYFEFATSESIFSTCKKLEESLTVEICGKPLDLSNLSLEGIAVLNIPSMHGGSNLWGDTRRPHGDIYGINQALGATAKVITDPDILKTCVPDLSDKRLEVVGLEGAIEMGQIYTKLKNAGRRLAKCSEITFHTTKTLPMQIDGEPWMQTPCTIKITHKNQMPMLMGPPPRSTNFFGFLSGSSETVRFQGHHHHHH

| SMILES | pIC50 [1] | pIC50 [2] | pIC50 [3, 4] | pIC50 ([3]; read-out: DGKAP1 Lucif Reporter IC50, Table 4) |
| --- | --- | --- | --- | --- |
| Cn1c(=O)c(C#N)c(N2CCN(C(c3ccc(F)cc3)c3ccccc3O)CC2)c2nc(C#N)ccc21 (stereo not drawn) [Example 11, 8-{4-[(4-fluorophenyl)(2-hydroxyphenyl)methyl]piperazin-1-yl}-5-methyl-6-oxo-5,6-dihydro-1,5-naphthyridine-2,7-dicarbonitrile] | 5.74 | 5.40 | 7.10 |  |
| Cn1c(=O)c([N+](=O)[O-])c(N2CCN(CC(O)c3ccc(F)cc3)CC2)c2nc(C#N)ccc21 (stereo not drawn) [Example 36, 8-{4-[2-(4-fluorophenyl)-2-hydroxyethyl]piperazin-1-yl}-5-methyl-7-nitro-6-oxo-5,6-dihydro-1,5-naphthyridine-2-carbonitrile] | 5.17 | 4.17 | 5.80 |  |
| Cc1ccc2c(n1)c(N1CCN(C(C)c3ccc(F)cc3)CC1)c(Br)c(=O)n2C (stereo not drawn) [Example 224, 3-bromo-4-(4-(1-(4-fluorophenyl)ethyl)piperazin-1-yl)-1,6-dimethyl-1,5-naphthyridin-2(1H)-one] | 6.85 | < 3.62 |  | 5.00 |
| Cc1ccc(CN2CCN(c3c(C#N)c(=O)n(C)c4ccc(Br)nc34)CC2)c(O)c1 [Example 372, 6-bromo-4-{4-[(2-hydroxy-4-methylphenyl)methyl]piperazin-1-yl}-1-methyl-2-oxo-1,2-dihydro-1,5-naphthyridine-3-carbonitrile] | 7.11 | 4.22 | 6.85 |  |
| Cc1ccc(CN2CCN(c3c(C#N)c(=O)n(C)c4ccc(Cl)nc34)CC2)cc1 [Example 386, 6-chloro-1-methyl-4-{4-[(4-methylphenyl)methyl]piperazin-1-yl}-2-oxo-1,2-dihydro-1,5-naphthyridine-3-carbonitrile] | 6.59 | 3.72 | 7.30 |  |
| Cc1ccc2c(n1)c(N1CCN(Cc3cccc(Cl)c3O)CC1)c(C#N)c(=O)n2C [Example 389, 4-{4-[(3-chloro-2-hydroxyphenyl)methyl]piperazin-1-yl}-1,6-dimethyl-2-oxo-1,2-dihydro-1,5-naphthyridine-3-carbonitrile] | 5.85 | 3.89 | 6.19 |  |
| Cc1cccc(CN2CCN(c3c(C#N)c(=O)n(C)c4ccc(Cl)nc34)CC2)c1O [Example 391, 6-chloro-4-{4-[(2-hydroxy-3-methylphenyl)methyl]piperazin-1-yl}-1-methyl-2-oxo-1,2-dihydro-1,5-naphthyridine-3-carbonitrile] | 5.74 | 4.44 | 7.15 |  |
| Cc1ccc(CN2CCN(c3c(C#N)c(=O)n(C)c4ccc(Cl)nc34)CC2)c(F)c1 [Example 423, 6-chloro-4-{4-[(2-fluoro-4-methylphenyl)methyl]piperazin-1-yl}-1-methyl-2-oxo-1,2-dihydro-1,5-naphthyridine-3-carbonitrile] | 5.66 | < 4.09 | 5.73 |  |
| COc1cc(C#N)ccc1CN1CCN(c2c(C#N)c(=O)n(C)c3ccc(Cl)nc23)CC1 [Example 424, 6-chloro-4-{4-[(4-cyano-2-methoxyphenyl)methyl]piperazin-1-yl}-1-methyl-2-oxo-1,2-dihydro-1,5-naphthyridine-3-carbonitrile] | 5.85 | < 3.62 | 5.00 |  |
